Experimental data published in patent US9884806B2, “Cyclic vinylogous amides as bromodomain inhibitors” (ICAHN SCHOOL OF MEDICINE AT MOUNT SINAI, priority 2013, dated 2018).

Assays:
[1] = molecular target: T1, first bromodomain (BrD1) of human BRD4 (Homo sapiens, UniProt O60885); assay: Fluorescence anisotropy binding assay (competition with FITC-labeled MS417 probe); conditions: FITC-MS417 probe 80 nM, PBS pH 7.4, 1 hour, 25° C., read-out: BRD4_1 IC50
T1 construct: the first bromodomain (BrD1) of human BRD4; poly-His (cleaved yes); made in house
Summary of the method: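 BRD4 BrD1 (His tag removed by thrombin) at 0.25 to 1 μM competed against 80 nM FITC-labeled MS417 in PBS pH 7.4. Anisotropy read after 1 hour at 25° C. Ki derived from fitted IC50 by Nikolovska-Coleska-corrected Cheng-Prusoff equation, one-site competitive model.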

[2] = molecular target: T2, BRD4_2 (Homo sapiens, UniProt O60885); assay: Fluorescence anisotropy binding assay (competition with FITC-labeled MS417 probe), BRD4_2; conditions: FITC-MS417 probe 80 nM, PBS pH 7.4, 1 hour, 25° C.
T2 construct: contains two tandem bromodomains (BrD1 and BrD2)

Row | melting point [°C] | IC50 [1] [µM] | IC50 [2] [µM] | Structure (SMILES)
1 | 172 to 175 | 1 to 10 | > 10 | CC1=C(Nc2cnc3ccccc3c2)CCCC1=O [Example 01-59, 2-methyl-3-[(quinolin-3-yl)amino]cyclohex-2-en-1-one]
2 | 233 to 235 | – | – | CC1=C(N[C@H]2CC[C@@H](C(=O)O)CC2)CCC1=O (hydrate or solvate) [Example 01-34, cis-(1S,4S)-4-((2-methyl-3-oxocyclopent-1-en-1-yl)amino)cyclohexanecarboxylic acid]
3 | 199 to 201 | < 1 | 1 to 10 | CC1=C(Nc2cc(NC(=O)c3ccccc3C)ccc2Cl)CCCC1=O [Example 05-44, N-(4-chloro-3-((2-methyl-3-oxocyclohex-1-en-1-yl)amino)phenyl)-2-methylbenzamide]
4 | 242 to 245 | – | – | CC1=C(Nc2ccc(Cl)cc2C(=O)O)CCC1=O [Example 02-05, 5-chloro-2-((2-methyl-3-oxocyclopent-1-en-1-yl)amino)benzoic acid]
5 | 265 to 267 | 1 to 10 | > 10 | CC1=C(Nc2cc(C(=O)O)ccc2Br)CCCC1=O [Example 01-48, 4-bromo-3((2-methyl-3-oxocyclohex-1-en-1-yl)amino)benzoic acid]
6 | 160 to 162 | 1 to 10 | 1 to 10 | CC1=C(Nc2ccc(NCCc3ccccc3C)cc2Cl)CCCC1=O [Example 05-77, 3-((2-chloro-4-((2-methylphenethyl)amino)phenyl)amino)-2-methyl-cyclohex-2-enone]
7 | 233 to 235 | 1 to 10 | 1 to 10 | CC1=C(Nc2ccc3[nH]c(=O)[nH]c3c2)CCCC1=O [Example 01-63, 5-[(2-methyl-3-oxocyclohex-1-en-1-yl)amino]-2,3-dihydro-1H-1,3-benzodiazol-2-one]
8 | 157 to 160 | 1 to 10 | > 10 | CC1=C(Nc2cccc(NCCc3ccccc3C)c2Cl)CCCC1=O [Example 05-79, 3-((2-chloro-3-((2-methylphenethyl)amino)phenyl)amino)-2-methylcyclohex-2-enone]
9 | 231 to 234 | 1 to 10 | 1 to 10 | COc1cc(C(=O)O)ccc1NC1=C(C)C(=O)CC1 [Example 01-12, 3-methoxy-4-((2-methyl-3-oxocyclopent-1-en-1-yl)amino)benzoic acid]
10 | 158 to 160 | < 1 | 1 to 10 | CC1=C(Nc2cc(NS(=O)(=O)C3CCCCC3)ccc2Cl)CCC1=O [Example 05-55, N-(4-chloro-3-((2-methyl-3-oxocyclopent-1-en-1-yl)amino)phenyl)-cyclohexanesulfonamide]
11 | 230 to 232 | 1 to 10 | > 10 | CC1=C(Nc2cccc(C(=O)O)c2Cl)CCC1=O [Example 01-44, 2-chloro-3((2-methyl-3-oxocyclopent-1-en-1-yl)amino)benzoic acid]
12 | 228 to 230 | – | – | CC1=C(Nc2ccc(C(=O)O)cc2)CCC1=O [Example 02-01, 4((2-methyl-3-oxocyclopent-1-en-1-yl)amino)benzoic acid]
13 | 229 to 232 | – | – | CC1=C(Nc2cc(Cl)c(C(=O)O)cc2Cl)CCC1=O
14 | 226 to 230 | – | – | CC1=C(Nc2ccc(C(=O)O)cc2Cl)CCC1=O [Example 02-02, 3-chloro-4((2-methyl-3-oxocyclopent-1-en-1-yl)amino)benzoic acid]
15 | 209 to 212 | – | – | CC1=C(Nc2cc(C(=O)O)ccc2C(F)(F)F)CCCC1=O
16 | 133 to 135 | – | – | COC(=O)c1cccc(NC2=C(C)C(=O)CC2)c1 [Example 01-04, methyl 3-((2-methyl-3-oxocyclopent-1-en-1-yl)amino)benzoate]
17 | 270 to 273 | – | – | CC(=O)c1ccc(NC2=C(C)C(=O)CC2)cc1 [Example 01-09, 3-((4-acetylphenyl)amino)-2-methylcyclopent-2-enone]
18 | 234 to 236 | – | – | CC(=O)Nc1ccc(Cl)c(NC2=C(C)C(=O)CCC2)c1 [Example 01-47, N-(4-chloro-3-((2-methyl-3-oxocyclohex-1-en-1-yl)amino)phenyl)-acetamide]
19 | 236 to 238 | – | – | CC1=C(N[C@H]2CC[C@H](C(=O)O)CC2)CCC1=O (hydrate or solvate) [Example 01-33, trans-(1R,4R)-4-((2-methyl-3-oxocyclopent-1-en-1-yl)amino)cyclo6hexane-carboxylic acid]
20 | 291 to 294 | – | – | CC1=C(Nc2cccc(Br)c2)CCC1=O
21 | 229 to 231 | – | – | CC1=C(NC2(C(F)(F)F)C=CC(C(=O)O)=CC2)CCCC1=O (stereo not drawn)
22 | 223 to 225 | – | – | CC1=C(Nc2cc(S(N)(=O)=O)ccc2Cl)CCC1=O (hydrate or solvate) [Example 01-46, 4-chloro-3-((2-methyl-3-oxocyclopent-1-en-1-yl)amino)benzene-sulfonamide]

Row | melting point [°C] | IC50 [1] [µM] | IC50 [2] [µM] | Structure (SMILES)
23 | 189 to 191 | – | – | CC1=C(NC2CCN(C(=O)OC(C)(C)C)CC2)CCC1=O (hydrate or solvate) [Example 01-32, tert-Butyl 4-((2-methyl-3-oxocyclopent-1-en-1-yl)amino)piperidine-1-carboxylate]
24 | 230 to 233 | – | – | CC1=C(Nc2ccc(S(=O)(=O)Nc3ccccn3)cc2)CCC1=O (hydrate or solvate) [Example 01-31, 4-((2-methyl-3-oxocyclopent-1-en-1-yl)amino)-N-(pyridin-2-yl)benzenesulfonamide]
25 | 263 to 264 | – | – | CC1=C(Nc2ccc(C(=O)O)cc2I)CCC1=O [Example 02-08, 3-iodo-4-((2-methyl-3-oxocyclopent-1-en-1-yl)amino)benzoic acid]
26 | 236 to 238 | – | – | CC1=C(Nc2cccc(C(=O)O)c2)CCC1=O [Example 01-03, 3((2-methyl-3-oxocyclopent-1-en-1-yl)amino)benzoic acid]
27 | 246 to 248 | – | – | CC1=C(Nc2ccc(C(=O)O)cc2Br)CCC1=O [Example 02-07, 3-bromo-4-((2-methyl-3-oxocyclopent-1-en-1-yl)amino)benzoic acid]
28 | 245 to 247 | – | – | CC1=C(Nc2ccc(S(N)(=O)=O)cc2)CCC1=O (hydrate or solvate) [Example 01-06, 4-((2-methyl-3-oxocyclopent-1-en-1-yl)amino)benzenesulfonamide]
29 | 210 to 213 | – | – | CC1=C(Nc2ccc(C(=O)O)cc2F)CCC1=O [Example 02-06, 3-fluoro-4((2-methyl-3-oxocyclopent-1-en-1-yl)amino)benzoic acid]
30 | 215 to 219 | – | – | CC1=C(Nc2ccc(CC(=O)O)cc2)CCCC1=O [Example 01-38, 2-(4((2-methyl-3-oxocyclohex-1-en-1-yl)amino)phenyl)acetic acid]
31 | 223 to 225 | – | – | CC1=C(Nc2cccc(S(N)(=O)=O)c2)CCC1=O (hydrate or solvate) [Example 01-45, 3((2-methyl-3-oxocyclopent-1-en-1-yl)amino)benzenesulfonamide]
32 | 220 to 223 | – | – | COc1c(NC2=C(C)C(=O)CC2)cccc1C(=O)O
33 | 240 to 243 | – | – | COc1cc(NC2=C(C)C(=O)CC2)ccc1C(=O)O [Example 02-03, 2-methoxy-4((2-methyl-3-oxocyclopent-1-en-1-yl)amino)benzoic acid]
34 | – | 1 to 10 | 1 to 10 | COC(=O)c1ccc(NC2=C(C)C(=O)CCC2)c(Cl)c1 [Example 05-12, methyl 3-chloro-4((2-methyl-3-oxocyclohex-1-en-1-yl)amino)benzoate]
35 | – | 1 to 10 | 1 to 10 | CC1=C(Nc2cccc(C(=O)Nc3ccccc3)c2)CCC1=O [Example 03-23, 3((2-methyl-3-oxocyclopent-1-en-1-yl)amino)-N-phenylbenzamide]
36 | – | 1 to 10 | > 10 | CC1=C(Nc2cccc(C(=O)Nc3cccc(C)c3)c2)CCC1=O [Example 04-6]
37 | 204 to 206 | – | – | CC1=C(Nc2ccc(C#N)cc2)CCC1=O (hydrate or solvate) [Example 01-07, 4-((2-methyl-3-oxocyclopent-1-en-1-yl)amino)benzonitrile]
38 | – | 1 to 10 | > 10 | COc1cccc(NC(=O)c2ccc(NC3=C(C)C(=O)CC3)cc2)c1 [Example 03-11, N-(3-methoxyphenyl)-4-((2-methyl-3-oxocyclopent-1-en-1-yl)amino)benzamide]
39 | – | > 10 | > 10 | CC1=C(Nc2ccc(C(=O)Nc3ccccc3)c(Cl)c2)CCC1=O [Example 04-45, 2-chloro-4-((2-methyl-3-oxocyclopent-1-en-1-yl)amino)-N-phenylbenzamide]
40 | 245 to 248 | – | – | CC1=C(Nc2ccccc2C(=O)O)CCC1=O [Example 02-04, 2-((2-methyl-3-oxocyclopent-1-en-1-yl)amino)benzoic acid]
41 | – | < 1 | > 10 | CC1=C(Nc2cccc(NC(=O)/C=C\C(=O)O)c2Cl)CCCC1=O [Example 05-85, (Z)-4-((2-chloro-3-((2-methyl-3-oxocyclohex-1-en-1-yl)amino)phenyl)-amino)-4-oxobut-2-enoic acid]
42 | – | 1 to 10 | 1 to 10 | COc1ccccc1NC(=O)c1ccc(NC2=C(C)C(=O)CC2)cc1 [Example 03-10, N-(2-methoxyphenyl)-4-((2-methyl-3-oxocyclopent-1-en-1-yl)amino)benzamide]
43 | – | > 10 | > 10 | COc1cc(NC2=C(C)C(=O)CC2)ccc1C(=O)O [Examples 02-3]
